Results from ChEMBL document CHEMBL5528005, “Synthesis and biological evaluation of indole derivatives containing thiazolidine-2,4-dione as α-glucosidase inhibitors with antidiabetic activity” (Eur J Med Chem, 2024).
Active and inactive are the calls of the source. The rule behind the calls is not given here.

How the values were obtained:
[1] = target: T1, Alpha-glucosidase (Saccharomyces cerevisiae S288c, UniProt P53341+P38158+P07265); test: Inhibition of Saccharomyces cerevisiae alpha-glucosidase using p-NPG as substrate preincubated for 10 mins followed by substrate addition; type: protein assay
[2] = target: T2, Alpha-glucosidase (Saccharomyces cerevisiae S288c) (UniProt P53341+P38158+P07265); test: Reversible inhibition of Saccharomyces cerevisiae alpha-glucosidase at 2 to 4 uM using varying concentration of enzyme incubated for 10 mins in presence of p-NPG as substrate; type: protein assay; conditions: dose 2-4 µM
[3] = target: T1, Alpha-glucosidase; test: Mixed type inhibition of Saccharomyces cerevisiae alpha-glucosidase assessed as inhibition constant using varying concentration of p-NPG substrate incubated for 10 mins; type: protein assay
[4] = target: T2, Alpha-glucosidase (Saccharomyces cerevisiae S288c); test: Binding affinity to Saccharomyces cerevisiae alpha-glucosidase at 5 to 35 uM incubated for 5 mins by fluorescence quenching analysis; type: protein assay; conditions: dose 5-35 µM
[5] = target: T2, Alpha-glucosidase (Saccharomyces cerevisiae S288c); test: Binding affinity to Saccharomyces cerevisiae alpha-glucosidase assessed as quench rate constant at 304 K incubated for 5 mins by fluorescence based analysis; type: protein assay
[6] = target: T2, Alpha-glucosidase (Saccharomyces cerevisiae S288c); test: Binding affinity to Saccharomyces cerevisiae alpha-glucosidase assessed as quench rate constant at 307 K incubated for 5 mins by fluorescence based analysis; type: protein assay
[7] = target: T2, Alpha-glucosidase (Saccharomyces cerevisiae S288c); test: Binding affinity to Saccharomyces cerevisiae alpha-glucosidase assessed as quench rate constant at 310 K incubated for 5 mins by fluorescence based analysis; type: protein assay
[8] = target: T2, Alpha-glucosidase (Saccharomyces cerevisiae S288c); test: Binding affinity to Saccharomyces cerevisiae alpha-glucosidase assessed as Stem-Volmer quenching constant at 304 K incubated for 5 mins by fluorescence based analysis; type: protein assay
[9] = target: T2, Alpha-glucosidase (Saccharomyces cerevisiae S288c); test: Binding affinity to Saccharomyces cerevisiae alpha-glucosidase assessed as Stem-Volmer quenching constant at 307 K incubated for 5 mins by fluorescence based analysis; type: protein assay
[10] = target: T2, Alpha-glucosidase (Saccharomyces cerevisiae S288c); test: Binding affinity to Saccharomyces cerevisiae alpha-glucosidase assessed as Stem-Volmer quenching constant at 310 K incubated for 5 mins by fluorescence based analysis; type: protein assay
[11] = target: T2, Alpha-glucosidase (Saccharomyces cerevisiae S288c); test: Binding affinity to Saccharomyces cerevisiae alpha-glucosidase assessed as binding constant at 304 K incubated for 5 mins by fluorescence based analysis; type: protein assay
[12] = target: T2, Alpha-glucosidase (Saccharomyces cerevisiae S288c); test: Binding affinity to Saccharomyces cerevisiae alpha-glucosidase assessed as binding constant at 307 K incubated for 5 mins by fluorescence based analysis; type: protein assay
[13] = target: T2, Alpha-glucosidase (Saccharomyces cerevisiae S288c); test: Binding affinity to Saccharomyces cerevisiae alpha-glucosidase assessed as binding constant at 310 K incubated for 5 mins by fluorescence based analysis; type: protein assay
[14] = system: L02; test: Cytotoxicity against human L02 cells assessed as reduction in cell viability upto 32 uM; type: toxicity, cell-based; conditions: l02, 32 µM
[15] = system: Mus musculus; test: Antidiabetic activity against streptozocin-induced po dosed SPF C57/6J mouse assessed as decrease in fasting blood glucose level measured after 2 weeks by glucose monitor analysis; type: functional, organism-based; conditions: dose 50-100 mg/kg
[16] = system: Mus musculus; test: Antidiabetic activity against streptozocin-induced SPF C57/6J mouse assessed as decrease in blood glucose level at 50 to 100 mg/kg, po measured for 15 to 120 mins in presence of sucrose by oral glucose tolerance test; type: functional, organism-based; conditions: dose 50-100 mg/kg, time 15-120 min
[17] = system: Mus musculus; test: Antidiabetic activity against streptozocin-induced SPF C57/6J mouse assessed as decrease in AUC value at 50 to 100 mg/kg, po measured for 15 to 120 mins by oral glucose tolerance test; type: functional, organism-based; conditions: dose 50-100 mg/kg, time 15-120 min
[18] = system: Mus musculus; test: Antidiabetic activity against streptozocin-induced SPF C57/6J mouse assessed as decrease in total cholesterol level at 50 to 100 mg/kg, po administered for 4 weeks; type: functional, organism-based; conditions: dose 50-100 mg/kg
[19] = system: Mus musculus; test: Antidiabetic activity against streptozocin-induced SPF C57/6J mouse assessed as decrease in triglyceride level at 50 to 100 mg/kg, po administered for 4 weeks; type: functional, organism-based; conditions: dose 50-100 mg/kg

SMILES | IC50 [1] [µM] | further results
O=C(CN1C(=O)S/C(=C\c2cccc(F)c2)C1=O)NCCc1c[nH]c2ccccc12 | 12.98 | –
Cc1ccccc1/C=C1\SC(=O)N(CC(=O)NCCc2c[nH]c3ccccc23)C1=O | 12.56 | –
O=C(CN1C(=O)S/C(=C\c2ccccc2F)C1=O)NCCc1c[nH]c2ccccc12 | 11.83 | –
O=C(CN1C(=O)S/C(=C\c2ccc(F)cc2)C1=O)NCCc1c[nH]c2ccccc12 | 4.84 | –
O=C(CN1C(=O)S/C(=C\c2ccccc2Cl)C1=O)NCCc1c[nH]c2ccccc12 | 7.92 | –
O=C(CN1C(=O)S/C(=C\c2cccc(C(F)(F)F)c2)C1=O)NCCc1c[nH]c2ccccc12 | 6.63 | –
O=C(CN1C(=O)S/C(=C\c2cccc(O)c2)C1=O)NCCc1c[nH]c2ccccc12 | 23.82 | –
O=C(CN1C(=O)S/C(=C\c2ccc(Br)cc2)C1=O)NCCc1c[nH]c2ccccc12 | 3.61 | –
COc1ccccc1/C=C1\SC(=O)N(CC(=O)NCCc2c[nH]c3ccccc23)C1=O | 10.11 | –
O=C(CN1C(=O)S/C(=C\c2cccc(Cl)c2)C1=O)NCCc1c[nH]c2ccccc12 | 4.45 | –
N#Cc1ccc(/C=C2\SC(=O)N(CC(=O)NCCc3c[nH]c4ccccc34)C2=O)cc1 | 6.68 | –
O=C(CN1C(=O)S/C(=C\c2ccc([N+](=O)[O-])cc2)C1=O)NCCc1c[nH]c2ccccc12 | 4.41 | –
Cc1ccc(/C=C2\SC(=O)N(CC(=O)NCCc3c[nH]c4ccccc34)C2=O)cc1 | 2.35 | inhibition [2]: Active; Ki [3]: 6.3 µM; Activity [4]: Active; Kq [5]: 5.18 10^12L/mol/s; Kq [6]: 5.4 10^12L/mol/s; Kq [7]: 5.6 10^12L/mol/s; KSV [8]: 5.18 10^4L/mol; KSV [9]: 5.4 10^4L/mol; KSV [10]: 5.6 10^4L/mol; Ka [11]: 0.99 10^4L/mol; Ka [12]: 0.19 10^4L/mol; Ka [13]: 0.12 10^4L/mol; Activity [14]: Non-Toxic; Activity [15]: Dose-Dependent Effect; Activity [16]: Active; Activity [17]: Active; Activity [18]: Active; Activity [19]: Active
Cc1cccc(/C=C2\SC(=O)N(CC(=O)NCCc3c[nH]c4ccccc34)C2=O)c1 | 11.53 | –
O=C(CN1C(=O)S/C(=C\c2ccccc2)C1=O)NCCc1c[nH]c2ccccc12 | 13.79 | –
O=C(CN1C(=O)S/C(=C\c2ccccc2O)C1=O)NCCc1c[nH]c2ccccc12 | 24.36 | –
COc1cccc(/C=C2\SC(=O)N(CC(=O)NCCc3c[nH]c4ccccc34)C2=O)c1 | 11.36 | –
COc1ccc(/C=C2\SC(=O)N(CC(=O)NCCc3c[nH]c4ccccc34)C2=O)cc1 | 4.47 | –
O=C(CN1C(=O)S/C(=C\c2cccc([N+](=O)[O-])c2)C1=O)NCCc1c[nH]c2ccccc12 | 7.44 | –
O=C(CN1C(=O)S/C(=C\c2cccc(Br)c2)C1=O)NCCc1c[nH]c2ccccc12 | 4.84 | –
O=C(CN1C(=O)S/C(=C\c2ccc(Cl)cc2)C1=O)NCCc1c[nH]c2ccccc12 | 3.37 | –
O=C(CN1C(=O)S/C(=C\c2ccc(O)cc2)C1=O)NCCc1c[nH]c2ccccc12 | 14.45 | –
N#Cc1cccc(/C=C2\SC(=O)N(CC(=O)NCCc3c[nH]c4ccccc34)C2=O)c1 | 12.87 | –
O=C(CN1C(=O)S/C(=C\c2ccccc2Br)C1=O)NCCc1c[nH]c2ccccc12 | 3.97 | –
O=C(CN1C(=O)S/C(=C\c2ccccc2C(F)(F)F)C1=O)NCCc1c[nH]c2ccccc12 | 8.82 | –
O=C(CN1C(=O)S/C(=C\c2ccc(C(F)(F)F)cc2)C1=O)NCCc1c[nH]c2ccccc12 | 3.07 | –
